Data on eleven molecules can be found in paper PMC7037393, “Synthesis, Structural, and Cytotoxic Properties of New Water-Soluble Copper(II) Complexes Based on 2,9-Dimethyl-1,10-Phenanthroline and Their One Derivative Containing 1,3,5-Triaza-7-Phosphaadamantane-7-Oxide” (Molecules, 2020).

Read-outs that look alike come from different tables or passages of the source.

One series has as its system A549 or HeLa lines. Conditions: cited from earlier work.
In a further series the test system is A549 cell line. Conditions: read-out: IC50 value for A549 cell line; cited from earlier work.
Series [1] has as its system normal cell lines like MRC5, HEK293T, or HaCat. Conditions: cited from earlier work.
A further series concerns apo-Tf. The settings on record: cited from earlier work.
Series [2] deals with NHDF cells. The series can be described thus: Cytotoxicity on normal human dermal fibroblasts, quantitative suspension test according to EN 14476 (DAPI/propidium iodide). The format is cell-based. Conditions: observed 4 days, aqua media. The protocol:
(§1) Normal human dermal fibroblasts (NHDF) (PromoCell, C-12302) were used as normal cells and LoVo (human colorectal adenocarcinoma, ATCC® CCL-229™), A549 (human lung carcinoma, ATCC, No. CCL-185 TM), MCF-7 (human breast adenocarcinoma, ATCC, No. HTB-22^TM) and HeLa (human cervix carcinoma, ATCC, No. CCL-2 TM) were used as cancer cells. They were cultured in DMEM, DMEM–F12 or EMEM (Lonza, CA, USA). Media were supplemented with 10% FBS (Biological Industries, Kibbutz Beit-Haemek, Israel), 2 mM L-glutamine (Biological Industries, Israel), 100 U/mL of penicillin and 100 µg/mL of streptomycin (Sigma, Neustadt an der Weinstrasse, Germany).
(§2) The 100 μL of suspension of NHDF, A549, HeLa, LoVo, and MCF7 cells at a density of 4 × 10^4 cells mL^−1 were incubated in a 96-well polystyrene plate (NUNC, Denmark) for 24 h. Product test solutions were prepared in DMEM, DMEM–F12, or EMEM supplemented with additional 2% FBS and 2 mM L-glutamine. Solutions of the reagents at concentrations from 460 (for 1), 454 (2), […] (3), 1242 (Cu(NO3)2), 1732 (PTA=O), and 1440 µM (dmphen) to 4.60 × 10^−6, 4.54 × 10^−6, 4.69 × 10^−6, 1.24 × 10^−5, 1.73 × 10^−5, and 1.44 × 10^−5 µM, respectively, were prepared and transferred (100 μL) into cell culture units (wells of microtiter plates) containing monolayer of cells. Eight units were inoculated with each dilution. Plates were incubated in 37 °C, 5% CO2 and observed daily for 4 days for the development of cytotoxic effect, using an inverted microscope (Olympus Corp., Hamburg, Germany, Axio Observer, Carl Zeiss MicroImaging GmbH). Then the wells were washed in phosphate buffered saline (PBS) and stained using DAPI (4′,6-diamidino-2-phenylindole) and propidium iodide (Merck, Darmstadt, Germany). The study used the fact that DAPI is able to be combined with cellular DNA, permeate through the membrane of cell, rapidly enter the nucleus of living cells and bind with DNA to form a DAPI-DNA complex. […] In cell culture these are cells that are apoptotic or damaged by any physical or chemical agent. Therefore, if these two fluorochrome are given at the same time, DAPI will get to healthy cells faster, while propidium iodide will stain dead or dying cells. The calculation of the ratio of cells counted on a specific area, allows to determine the potency of a substance in inhibiting a specific biological function (IC50).

Series [3] relates to A549 (human lung carcinoma). The series can be described thus: Cytotoxicity on A549 cells, quantitative suspension test according to EN 14476. Conditions: observed 4 days, aqua media. Format: cell-based. On the procedure: as §1, §2
Series [4] deals with HeLa (human cervix carcinoma). The series can be described thus: Cytotoxicity on HeLa cells, quantitative suspension test according to EN 14476. Conditions: observed 4 days, aqua media. Format: cell-based. The protocol:
as §1, §2

Series [5] has as its system MCF7 (human breast adenocarcinoma). Nature of the series: Cytotoxicity on MCF7 cells, quantitative suspension test according to EN 14476. The format is cell-based. The settings on record: observed 4 days, aqua media. The protocol: as §1, §2
Series [6] concerns LoVo (human colorectal adenocarcinoma). The series can be described thus: Cytotoxicity on LoVo cells, quantitative suspension test according to EN 14476. Format: cell-based. Conditions: observed 4 days, aqua media. On the procedure: as §1, §2
Series [7] has as its system NHDF cells. The arrangement: method as in PMID 31237306. The settings on record: cited from earlier work.
For series [8], the system named is A549 (human lung carcinoma). Also noted: method as in PMID 31237306. The settings on record: cited from earlier work.
Series [9] has as its system HeLa (human cervix carcinoma). The arrangement: method as in PMID 31237306. The settings on record: cited from earlier work.
The test system of series [10] is MCF7 (human breast adenocarcinoma). The arrangement: method as in PMID 31237306. Conditions: cited from earlier work.
Series [11] concerns LoVo (human colorectal adenocarcinoma). The arrangement: method as in earlier work. Conditions: cited from earlier work.
The mark [12] stands for this setting: read-out: IC50 value, cytotoxic effect on A549 or HeLa lines, A549 or HeLa.

A word on the IC50: it is the concentration needed to halve the response being measured. In the case of [Cu2(sal-D,L-glu)2(imidazole)2], the 50% inhibitory concentration (IC50) in the series with A549 or HeLa lines was greater than 100 µM.
Turning to “[Cu(iodide)(dmphen)(P(p-OCH3-Ph)2CH2-SarGly)]”, in the series with A549 cell line, the IC50 is greater than 100 µM.
`COc1ccc(P(CO)c2ccc(OC)cc2)cc1.Cc1ccc2ccc3ccc(C)nc3c2n1.[Cu+].[I-]` [[Cu(iodide)(dmphen)(P(p-OCH3-Ph)2CH2OH)]]: the IC50 with A549 cell line was 62 µM. Besides, in [1], the “concentration toxic for normal cell lines” value is 32 to 43 µM.
On to `CS(C)=O.[Cl-].[Cl-].[Cl-].[Cl-].[Ru+3].c1c[nH+]c[nH]1.c1c[nH]cn1` [NAMI-A, Imidazolium-trans-tetrachloro(dimethylsulfoxide)imidazoleruthenium(III)], for which, in the series on apo-Tf, the “association constant with apo-Tf” value was 12800 M⁻¹.
For the molecule `O=[N+]([O-])[O-].O=[N+]([O-])[O-].[Cu+2]` [Cu(NO3)2, reference compound], the IC50 was 310 ± 47 µM in the series on NHDF cells [2]; 155 ± 23 µM in series [3]; 19.1 ± 2.9 µM in [4]; 155 ± 23 µM in series [5]; 38.8 ± 5.8 µM in series [6].
On to “[Cu2(sal-D,L-glu)2(isoquinoline)2]∙2EtOH”, for which the IC50 with A549 or HeLa lines (setting [12]) is greater than 100 µM.
Consider `[Cr+3].c1cnc2c(c1)ccc1cccnc12.c1cnc2c(c1)ccc1cccnc12.c1cnc2c(c1)ccc1cccnc12` [chromium(III)-phen], for which the “association constant, apo-Tf system” value in the series with apo-Tf is 150000 M⁻¹.
Take `N.N.[Cl][Pt][Cl]` [Cisplatin]: the IC50 in the series with NHDF cells [7] was 16.6 ± 2.1 µM; in [8] it was 33.3 ± 4.2 µM; in series [9], 16.6 ± 3.1 µM; in series [10], 33.3 ± 4.2 µM; in series [11], 9.12 ± 0.005 µM.
On to [Cu(sal-5-met-L-glu)(H2O)]∙H2O, for which, in the series with A549 or HeLa lines (setting [12]), the IC50 is greater than 100 µM.
Turning to [Cu(EtOH)2(imidazole)4], the IC50 in the series with A549 or HeLa lines was greater than 100 µM.
As to `Cc1ccc2ccc3ccc(C)nc3c2n1` [Dmphen, 2,9-dimethyl-1,10-phenanthroline], the half-maximal inhibitory concentration (IC50) in series [4] (Homo sapiens, 96 h) turned out to be 720 ± 108 µM; in series [6] (Homo sapiens, 96 h) it was 360 ± 54 µM.
